Legend:
[1] = Tryptophan fluorescent binding assay, 3POPC/1POPG vesicles; details: 50 μM peptide, PBS pH 7.4, lipid per peptide
Summary of the method: (§1)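 Peptide fixed at 50 μM, titrated with POPC or 3POPC/1POPG large unilamellar vesicles (100 nm extruded; 0-5000 μM lipid) in PBS pH 7.4. Tryptophan fluorescence (ex 280, em 300-450 nm) read after 60 min; lipid concentration giving 50% binding reported as lipid/peptide ratio.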

[2] = ANTS/DPX liposome leakage assay, 3POPC/1POPG vesicles; type: biochemical; details: 0.5 mM vesicles; for Peptide Concentration-induced 50% ANTS/DPX leakage at pH 4.8, 3POPC/1POPG Vesicle: pH 4.8, lipid per peptide; for Peptide Concentration-induced 50% ANTS/DPX leakage at pH 7.4, 3POPC/1POPG Vesicle: pH 7.4, lipid per peptide
Summary of the method: (§2)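 LUVs (100 nm extruded) of POPC or POPC:POPG 3:1, loaded with 5 mM ANTS/12.5 mM DPX, used at 0.5 mM lipid with peptide 0–20 μM in PBS pH 7.4 or HCl-adjusted PBS pH 4.8. Leakage read after 3 h (ex 350/em 510 nm) against 10% Triton maximum; 50% leakage expressed as lipid per peptide.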

[3] = system: U2OS (human bone osteosarcoma); details: 72 h
Summary of the method: (§3)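 MTT viability after 72 h exposure to 0–100 μM compound (final DMSO 0.5% or 0%), 5×10^3 cells/well; HMLER lines and MCF-10A in MEGM, U2OS in DMEM with 10% FBS. A550 normalized to matching vehicle controls; IC50 interpolated from dose–response curves.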

[4] = system: HMLER (human breast cancer bulk cell); experiment: cells; details: 72 h
Summary of the method: as §3

[5] = system: HMLER-shEcad (human breast cancer stem cell); experiment: cells; details: 72 h
Summary of the method: as §3

[6] = system: HEK293T (human embryonic kidney cell); experiment: cells; details: 72 h
[7] = ANTS/DPX liposome leakage assay, POPC vesicles; type: biochemical; details: 0.5 mM vesicles; for Peptide Concentration-induced 50% ANTS/DPX leakage at pH 4.8, POPC Vesicle: pH 4.8, lipid per peptide; for Peptide Concentration-induced 50% ANTS/DPX leakage at pH 7.4, POPC Vesicle: pH 7.4, lipid per peptide
Summary of the method: as §2

[8] = Tryptophan fluorescent binding assay, POPC vesicles; details: 50 μM peptide, PBS pH 7.4, lipid per peptide
Summary of the method: as §1

| Compound | Lipid Concentration-induced 50% Peptide Binding, 3POPC/1POPG Vesicle [1] | Peptide Concentration-induced 50% ANTS/DPX leakage at pH 4.8, 3POPC/1POPG Vesicle [2] | Peptide Concentration-induced 50% ANTS/DPX leakage at pH 7.4, 3POPC/1POPG Vesicle [2] | IC50 [3] | IC50 [4] | IC50 [5] | IC50 [6] | Peptide Concentration-induced 50% ANTS/DPX leakage at pH 4.8, POPC Vesicle [7] | Peptide Concentration-induced 50% ANTS/DPX leakage at pH 7.4, POPC Vesicle [7] | Lipid Concentration-induced 50% Peptide Binding, POPC Vesicle [8] |
| --- | --- | --- | --- | --- | --- | --- | --- | --- | --- | --- |
| CC(C)C[C@H](NC(=O)CN)C(=O)N[C@@H](CC(C)C)C(=O)N[C@@H](Cc1c[nH]cn1)C(=O)N[C@@H](CC(C)C)C(=O)N[C@@H](CC(C)C)C(=O)N[C@@H](CCCCN)C(=O)N[C@@H](CC(C)C)C(=O)N[C@@H](CC(C)C)C(=O)N[C@@H](CC(C)C)C(=O)N[C@@H](Cc1c[nH]cn1)C(=O)N[C@@H](C)C(=O)N[C@@H](C)C(=O)NCC(=O)N[C@@H](Cc1c[nH]c2ccccc12)C(N)=O [HKH] | 0.38 L/P | 47 L/P | 274 L/P | 18.9 ± 1.24 µM | 3.45 ± 0.21 µM | 3.1 ± 0.57 µM | 5.7 ± 0.99 µM | 193 L/P | 1077 L/P | 0.18 L/P |
| CC(C)C[C@H](NC(=O)CN)C(=O)N[C@@H](CC(C)C)C(=O)N[C@@H](Cc1c[nH]cn1)C(=O)N[C@@H](CC(C)C)C(=O)N[C@@H](CC(C)C)C(=O)N[C@@H](CCCCN)C(=O)N[C@@H](CC(C)C)C(=O)N[C@@H](CC(C)C)C(=O)N[C@@H](CC(C)C)C(=O)N[C@@H](CCCCN)C(=O)N[C@@H](C)C(=O)N[C@@H](C)C(=O)NCC(=O)N[C@@H](Cc1c[nH]c2ccccc12)C(N)=O [HKK] | 0.14 L/P | 106 L/P | 90 L/P | 12.23 ± 0.11 µM | 3.4 ± 0.71 µM | 2.6 ± 0.42 µM | 9.5 ± 0.99 µM | 106 L/P | 657 L/P | 0.18 L/P |
| CC(C)C[C@H](NC(=O)CN)C(=O)N[C@@H](CC(C)C)C(=O)N[C@@H](CCCCN)C(=O)N[C@@H](CC(C)C)C(=O)N[C@@H](CC(C)C)C(=O)N[C@@H](CCC(=O)O)C(=O)N[C@@H](CC(C)C)C(=O)N[C@@H](CC(C)C)C(=O)N[C@@H](CC(C)C)C(=O)N[C@@H](Cc1c[nH]cn1)C(=O)N[C@@H](C)C(=O)N[C@@H](C)C(=O)NCC(=O)N[C@@H](Cc1c[nH]c2ccccc12)C(N)=O [KEH] | 0.50 L/P | 68 L/P | 286 L/P | 49.2 ± 5.3 µM | 3.3 ± 0.42 µM | 2.35 ± 0.07 µM | 5.65 ± 0.07 µM | 188 L/P | 995 L/P | 1.00 L/P |
| CC(C)C[C@H](NC(=O)CN)C(=O)N[C@@H](CC(C)C)C(=O)N[C@@H](CCCCN)C(=O)N[C@@H](CC(C)C)C(=O)N[C@@H](CC(C)C)C(=O)N[C@@H](CCC(=O)O)C(=O)N[C@@H](CC(C)C)C(=O)N[C@@H](CC(C)C)C(=O)N[C@@H](CC(C)C)C(=O)N[C@@H](CCCCN)C(=O)N[C@@H](C)C(=O)N[C@@H](C)C(=O)NCC(=O)N[C@@H](Cc1c[nH]c2ccccc12)C(N)=O [KEK] | 0.50 L/P | 126 L/P | 438 L/P | 8.15 ± 0.49 µM | 1.6 ± 0.14 µM | 1.35 ± 0.07 µM | 3.2 ± 0.14 µM | 110 L/P | 1173 L/P | 0.47 L/P |
| CC(C)C[C@H](NC(=O)CN)C(=O)N[C@@H](CC(C)C)C(=O)N[C@@H](CCCCN)C(=O)N[C@@H](CC(C)C)C(=O)N[C@@H](CC(C)C)C(=O)N[C@@H](Cc1c[nH]cn1)C(=O)N[C@@H](CC(C)C)C(=O)N[C@@H](CC(C)C)C(=O)N[C@@H](CC(C)C)C(=O)N[C@@H](CCC(=O)O)C(=O)N[C@@H](C)C(=O)N[C@@H](C)C(=O)NCC(=O)N[C@@H](Cc1c[nH]c2ccccc12)C(N)=O [KHE] | 0.71 L/P | 156 L/P | 188 L/P | 53 ± 2.83 µM | 3.7 ± 0.14 µM | 2.92 ± 0.17 µM | 26 ± 2.83 µM | 183 L/P | 981 L/P | 0.88 L/P |

— patent publication US20250326794A1, “ANTI-CANCER LEUCINE-RICH PEPTIDES AND USES THEREOF” (KING'S COLLEGE LONDON, priority 2019, published 2025)
